We go through one compound from patent publication US20150051296A1, “USE OF FATTY ACID TO REDUCE SKIN IRRITATION ASSOCIATED WITH RETINOID THERAPY” (Access Business Group Internaional LLC, priority 2013, published 2015).

Each structure is given as a SMILES string.

Assay [1] concerns retinoic acid response element (RARE) construct. Briefly: RARE reporter assay in stably transfected human kidney cells. Format: cell-based. To be noted: oleic acid about 0, 25, 50, 100, 200 μM, FIG. 3. The method, then:
Human kidney cells were stably transfected with a retinoic acid response element (RARE) construct. The transfected cells were exposed to increasing amounts of retinoic acid (from about 0.005 μM to about 10 μM) in the presence of increasing amounts of oleic acid (about 0 μM, about 25 μM, about 50 μM, about 100 μM, and about 200 μM), and the response was measured in relative light units (RLUs).

Assay [2] has as its system peroxisome proliferator activated receptor (PPAR). Briefly: PPAR luciferase reporter assay in stably transfected Chinese hamster ovary cells. Particulars: about 0 to about 100 μg/mL, FIG. 5. Format: cell-based. As to the method:
Chinese hamster ovary cells were stably transfected with peroxisome proliferator activated receptor (PPAR) construct and luciferase reporter vector. […] The response was measured in relative light units (RLUs).

In the case of `CCCCCCCC/C=C\CCCCCCCC(=O)O` [oleic acid], the “effect of the fatty acid on retinoic acid activation of the retinoic acid receptor” value in assay [1] is reported as “did not affect retinoic acid activation of the retinoic acid receptor”. The “response (RLUs) of PPAR-transfected cells” value in assay [2] was “responded in a dose dependent manner”.
